# Laboratory results published in patent publication US20120029187A1, “HALOALKYLSULFONANILIDE DERIVATIVE” (Nissan Chemical Industries, Ltd., priority 2009, published 2012).
# What was measured:
# Assay type in all cases: in vivo
# transplanted rice = test: Test Example 1: preemergence treatment under submerged conditions, effect on crop; details: dose 2.52 g/a
# Summary of the method: (§1)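 Alluvial soil flooded to 4 cm depth; barnyardgrass, bulrush and ducksalad sown and 2.5-leaf rice seedlings transplanted. Same day, water-diluted emulsifiable concentrates applied to the water surface at set doses (g/a). Kept at 25–30 °C in greenhouse; effects scored 0–5 by mortality after three weeks.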
# water foxtail [1] = test: Test Example 4: herbicidal effect in foliage treatment; details: dose 3.2 g/a
# Summary of the method: (§2)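 Post-emergence foliar spray of water-diluted emulsifiable concentrate at predetermined doses (g per are), applied to plants 14 days after sowing in sterile diluvial soil (greenhouse, 25 to 30° C). Visual scale rating of effect taken 3 weeks later.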
# common lambsquater [2] = test: as above; details: dose 3.2 g/a
# Summary of the method: as §2
# common ragweed [3] = test: as above; details: dose 3.2 g/a
# Summary of the method: as §2
# velvetleaf [4] = test: as above; details: dose 3.2 g/a
# Summary of the method: as §2
# beadstraw [5] = test: as above; details: dose 3.2 g/a
# Summary of the method: as §2
# giant foxtail [6] = test: as above; details: dose 3.2 g/a
# Summary of the method: as §2
# posumbu knotweed = test: as above; details: dose 3.2 g/a
# Summary of the method: as §2
# wild oat [7] = test: as above; details: dose 3.2 g/a
# Summary of the method: as §2
# common chickweed [8] = test: as above; details: dose 3.2 g/a
# Summary of the method: as §2
# barnyardgrass [9] = test: as above; details: dose 3.2 g/a
# Summary of the method: as §2
# redroot pigweed [10] = test: as above; details: dose 3.2 g/a
# Summary of the method: as §2
# large crabgrass [11] = test: as above; details: dose 3.2 g/a
# Summary of the method: as §2
# Italian ryegrass [12] = test: as above; details: dose 3.2 g/a
# Summary of the method: as §2
# bulrush [13] = test: Test Example 2: herbicidal effects during the vegetation period under submerged conditions; details: treatment during the vegetation period under submerged conditions; dose 2.52 g/a
# Summary of the method: (§3)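 Barnyardgrass, bulrush and ducksalad were co-sown in alluvial soil flooded to 4 cm and grown in a greenhouse at 25 to 30° C. At the 1- or 2-leaf stage, water-diluted emulsifiable concentrates went onto the water surface at set doses (g/a). Herbicidal effect was scored three weeks later on a graded scale.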
# barnyardgrass [14] = test: as above; details: treatment during the vegetation period under submerged conditions; dose 2.52 g/a
# Summary of the method: as §3
# ducksalad [15] = test: as above; details: treatment during the vegetation period under submerged conditions; dose 2.52 g/a
# Summary of the method: as §3
# water foxtail [16] = test: Test Example 3: herbicidal effects in soil treatment; details: dose 3.2 g/a
# Summary of the method: (§4)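 Seeds were sown in sterilized diluvial soil and covered with about 1.5 cm of soil. Compounds, formulated as emulsifiable concentrates and diluted with water, were sprayed evenly over the soil surface at set doses in g/a. Herbicidal effect was scored on a rating scale three weeks later.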
# common lambsquater [17] = test: as above; details: dose 3.2 g/a
# Summary of the method: as §4
# common ragweed [18] = test: as above; details: dose 3.2 g/a
# Summary of the method: as §4
# velvetleaf [19] = test: as above; details: dose 3.2 g/a
# Summary of the method: as §4
# beadstraw [20] = test: as above; details: dose 3.2 g/a
# Summary of the method: as §4
# giant foxtail [21] = test: as above; details: dose 3.2 g/a
# Summary of the method: as §4
# wild oat [22] = test: as above; details: dose 3.2 g/a
# Summary of the method: as §4
# common chickweed [23] = test: as above; details: dose 3.2 g/a
# Summary of the method: as §4
# barnyardgrass [24] = test: as above; details: dose 3.2 g/a
# Summary of the method: as §4
# redroot pigweed [25] = test: as above; details: dose 3.2 g/a
# Summary of the method: as §4
# large crabgrass [26] = test: as above; details: dose 3.2 g/a
# Summary of the method: as §4
# Italian ryegrass [27] = test: as above; details: dose 3.2 g/a
# Summary of the method: as §4
# bulrush [28] = test: Test Example 1: herbicidal effects in preemergence treatment under submerged conditions; details: dose 2.52 g/a
# Summary of the method: as §1
# barnyardgrass [29] = test: as above; details: dose 2.52 g/a
# Summary of the method: as §1
# ducksalad [30] = test: as above; details: dose 2.52 g/a
# Summary of the method: as §1
# [31] = three weeks after the application
smiles,measurement,setting,value
CCCOC(=O)N(c1ccccc1CN1COC(C)(C)C(F)C1=O)S(=O)(=O)C(F)(F)F (stereo not shown) [II-35],"a: transplanted rice, effect on crop (evaluation scale 0-5)",transplanted rice,0 (mortality of less than 5% (almost ineffective))
same,"G: water foxtail, herbicidal effect",water foxtail [1]; three weeks after application,5 (mortality of 90% or above (nearly complete death))
same,"L: common lambsquater, herbicidal effect",common lambsquater [2]; three weeks after application,1 (mortality of at least 5% and less than 20%)
same,"J: common ragweed, herbicidal effect",common ragweed [3]; three weeks after application,3 (mortality of at least 40% and less than 70%)
same,"I: velvetleaf, herbicidal effect",velvetleaf [4]; three weeks after application,0 (mortality of less than 5% (almost ineffective))
same,"O: beadstraw, herbicidal effect",beadstraw [5]; three weeks after application,4 (mortality of at least 70% and less than 90%)
same,"E: giant foxtail, herbicidal effect",giant foxtail [6]; three weeks after application,3 (mortality of at least 40% and less than 70%)
same,"M: posumbu knotweed, herbicidal effect",posumbu knotweed; three weeks after application,3 (mortality of at least 40% and less than 70%)
same,"F: wild oat, herbicidal effect",wild oat [7]; three weeks after application,0 (mortality of less than 5% (almost ineffective))
same,"N: common chickweed, herbicidal effect",common chickweed [8]; three weeks after application,3 (mortality of at least 40% and less than 70%)
same,"A: barnyardgrass, herbicidal effect",barnyardgrass [9]; three weeks after application,5 (mortality of 90% or above (nearly complete death))
same,"K: redroot pigweed, herbicidal effect",redroot pigweed [10]; three weeks after application,1 (mortality of at least 5% and less than 20%)
same,"D: large crabgrass, herbicidal effect",large crabgrass [11]; three weeks after application,5 (mortality of 90% or above (nearly complete death))
same,"H: Italian ryegrass, herbicidal effect",Italian ryegrass [12]; three weeks after application,4 (mortality of at least 70% and less than 90%)
same,"B: bulrush, herbicidal effect (evaluation scale 0-5)",bulrush [13],5 (mortality of 90% or above (nearly complete death))
same,"A: barnyardgrass, herbicidal effect (evaluation scale 0-5)",barnyardgrass [14],5 (mortality of 90% or above (nearly complete death))
same,"C: ducksalad, herbicidal effect (evaluation scale 0-5)",ducksalad [15],5 (mortality of 90% or above (nearly complete death))
same,"G: water foxtail, herbicidal effect (evaluation scale 0-5)",water foxtail [16],5 (mortality of 90% or above (nearly complete death))
same,"L: common lambsquater, herbicidal effect (evaluation scale 0-5)",common lambsquater [17],0 (mortality of less than 5% (almost ineffective))
same,"J: common ragweed, herbicidal effect (evaluation scale 0-5)",common ragweed [18],4 (mortality of at least 70% and less than 90%)
same,"I: velvetleaf, herbicidal effect (evaluation scale 0-5)",velvetleaf [19],3 (mortality of at least 40% and less than 70%)
same,"O: beadstraw, herbicidal effect (evaluation scale 0-5)",beadstraw [20],4 (mortality of at least 70% and less than 90%)
same,"E: giant foxtail, herbicidal effect (evaluation scale 0-5)",giant foxtail [21],3 (mortality of at least 40% and less than 70%)
same,"F: wild oat, herbicidal effect (evaluation scale 0-5)",wild oat [22],3 (mortality of at least 40% and less than 70%)
same,"N: common chickweed, herbicidal effect (evaluation scale 0-5)",common chickweed [23],1 (mortality of at least 5% and less than 20%)
same,"A: barnyardgrass, herbicidal effect (evaluation scale 0-5)",barnyardgrass [24],5 (mortality of 90% or above (nearly complete death))
same,"K: redroot pigweed, herbicidal effect (evaluation scale 0-5)",redroot pigweed [25],2 (mortality of at least 20% and less than 40%)
same,"D: large crabgrass, herbicidal effect (evaluation scale 0-5)",large crabgrass [26],5 (mortality of 90% or above (nearly complete death))
same,"H: Italian ryegrass, herbicidal effect (evaluation scale 0-5)",Italian ryegrass [27],4 (mortality of at least 70% and less than 90%)
same,"B: bulrush, herbicidal effect (evaluation scale 0-5)",bulrush [28],5 (mortality of 90% or above (nearly complete death))
same,"A: barnyardgrass, herbicidal effect (evaluation scale 0-5)",barnyardgrass [29],5 (mortality of 90% or above (nearly complete death))
same,"C: ducksalad, herbicidal effect (evaluation scale 0-5)",ducksalad [30],5 (mortality of 90% or above (nearly complete death))
CCOC(=O)N(c1ccccc1CN1CSCCC1=O)S(=O)(=O)C(F)(F)F [II-79],"a: transplanted rice, effect on crop (evaluation scale 0-5)",transplanted rice,0 (mortality of less than 5% (almost ineffective))
same,"G: water foxtail, herbicidal effect",water foxtail [1]; [31],5 (mortality of 90% or above (nearly complete death))
same,"L: common lambsquater, herbicidal effect",common lambsquater [2]; [31],3 (mortality of at least 40% and less than 70%)
same,"J: common ragweed, herbicidal effect",common ragweed [3]; [31],4 (mortality of at least 70% and less than 90%)
same,"I: velvetleaf, herbicidal effect",velvetleaf [4]; [31],4 (mortality of at least 70% and less than 90%)
same,"O: beadstraw, herbicidal effect",beadstraw [5]; [31],4 (mortality of at least 70% and less than 90%)
same,"E: giant foxtail, herbicidal effect",giant foxtail [6]; [31],4 (mortality of at least 70% and less than 90%)
same,"M: posumbu knotweed, herbicidal effect",posumbu knotweed; [31],4 (mortality of at least 70% and less than 90%)
same,"F: wild oat, herbicidal effect",wild oat [7]; [31],0 (mortality of less than 5% (almost ineffective))
same,"N: common chickweed, herbicidal effect",common chickweed [8]; [31],4 (mortality of at least 70% and less than 90%)
same,"A: barnyardgrass, herbicidal effect",barnyardgrass [9]; [31],5 (mortality of 90% or above (nearly complete death))
same,"K: redroot pigweed, herbicidal effect",redroot pigweed [10]; [31],1 (mortality of at least 5% and less than 20%)
same,"D: large crabgrass, herbicidal effect",large crabgrass [11]; [31],4 (mortality of at least 70% and less than 90%)
same,"H: Italian ryegrass, herbicidal effect",Italian ryegrass [12]; [31],3 (mortality of at least 40% and less than 70%)
same,"B: bulrush, herbicidal effect (evaluation scale 0-5)",bulrush [13],5 (mortality of 90% or above (nearly complete death))
same,"A: barnyardgrass, herbicidal effect (evaluation scale 0-5)",barnyardgrass [14],5 (mortality of 90% or above (nearly complete death))
same,"C: ducksalad, herbicidal effect (evaluation scale 0-5)",ducksalad [15],5 (mortality of 90% or above (nearly complete death))
same,"herbicidal effect, G: water foxtail",water foxtail [16],5 (mortality of 90% or above (nearly complete death))
same,"herbicidal effect, L: common lambsquater",common lambsquater [17],3 (mortality of at least 40% and less than 70%)
same,"herbicidal effect, J: common ragweed",common ragweed [18],4 (mortality of at least 70% and less than 90%)
same,"herbicidal effect, I: velvetleaf",velvetleaf [19],5 (mortality of 90% or above (nearly complete death))
same,"herbicidal effect, O: beadstraw",beadstraw [20],0 (mortality of less than 5% (almost ineffective))
same,"herbicidal effect, E: giant foxtail",giant foxtail [21],5 (mortality of 90% or above (nearly complete death))
same,"herbicidal effect, F: wild oat",wild oat [22],0 (mortality of less than 5% (almost ineffective))
same,"herbicidal effect, N: common chickweed",common chickweed [23],4 (mortality of at least 70% and less than 90%)
same,"herbicidal effect, A: barnyardgrass",barnyardgrass [24],5 (mortality of 90% or above (nearly complete death))
same,"herbicidal effect, K: redroot pigweed",redroot pigweed [25],2 (mortality of at least 20% and less than 40%)
same,"herbicidal effect, D: large crabgrass",large crabgrass [26],5 (mortality of 90% or above (nearly complete death))
same,"herbicidal effect, H: Italian ryegrass",Italian ryegrass [27],3 (mortality of at least 40% and less than 70%)
same,"B: bulrush, herbicidal effect (evaluation scale 0-5)",bulrush [28],5 (mortality of 90% or above (nearly complete death))
same,"A: barnyardgrass, herbicidal effect (evaluation scale 0-5)",barnyardgrass [29],5 (mortality of 90% or above (nearly complete death))
same,"C: ducksalad, herbicidal effect (evaluation scale 0-5)",ducksalad [30],5 (mortality of 90% or above (nearly complete death))
